Key:
[1] = system: MCF7; assay: GRmax, 72 h; higher = less effect;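 also: breast cell lines in 384-well plates, nine doses across a 10^4 range, Dye Drop imaging of viable cells vs DMSO and time-zero plates, GR 0 means no net growth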
[2] = system: MDAMB415; assay: GRmax, 72 h; higher = less effect;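 also: breast cell lines in 384-well plates, nine doses across a 10^4 range, Dye Drop imaging of viable cells vs DMSO and time-zero plates, GR 0 means no net growth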
[3] = system: HCC1187; assay: GRmax, 72 h; higher = less effect;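 also: breast cell lines in 384-well plates, nine doses across a 10^4 range, Dye Drop imaging of viable cells vs DMSO and time-zero plates, GR 0 means no net growth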
[4] = system: CAL51; assay: GRmax, 72 h; higher = less effect;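 also: breast cell lines in 384-well plates, nine doses across a 10^4 range, Dye Drop imaging of viable cells vs DMSO and time-zero plates, GR 0 means no net growth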
[5] = system: HCC1419; assay: GRmax, 72 h; higher = less effect
[6] = system: HCC1143; assay: GRmax, 72 h; higher = less effect
[7] = system: MGH312; assay: GRmax, 72 h; higher = less effect
[8] = system: BT474; assay: GRmax, 72 h; higher = less effect
[9] = system: HCC1806; assay: GRmax, 72 h; higher = less effect
[10] = system: HCC1187; assay: area over the GR curve, 72 h; higher = more effect;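 also: Dye Drop or Deep Dye Drop imaging of viable cells in 384-well plates (Hoechst nuclei, LIVE/DEAD dye), nine half-log doses, GR normalized to DMSO controls and time-zero plates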
[11] = system: SUM185PE; assay: area over the GR curve, 72 h; higher = more effect;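 also: Dye Drop or Deep Dye Drop imaging of viable cells in 384-well plates (Hoechst nuclei, LIVE/DEAD dye), nine half-log doses, GR normalized to DMSO controls and time-zero plates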
[12] = system: HCC1954; assay: area over the GR curve, 72 h; higher = more effect;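 also: Dye Drop or Deep Dye Drop imaging of viable cells in 384-well plates (Hoechst nuclei, LIVE/DEAD dye), nine half-log doses, GR normalized to DMSO controls and time-zero plates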
[13] = system: HS578T; assay: area over the GR curve, 72 h; higher = more effect;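 also: Dye Drop or Deep Dye Drop imaging of viable cells in 384-well plates (Hoechst nuclei, LIVE/DEAD dye), nine half-log doses, GR normalized to DMSO controls and time-zero plates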

| SMILES | GRmax, 72 h [1] [GR] | GRmax, 72 h [2] [GR] | GRmax, 72 h [3] [GR] | GRmax, 72 h [4] [GR] | GRmax, 72 h [5] [GR] | GRmax, 72 h [6] [GR] | GRmax, 72 h [7] [GR] | GRmax, 72 h [8] [GR] | GRmax, 72 h [9] [GR] | area over the GR curve [10] [GR] | area over the GR curve [11] [GR] | area over the GR curve [12] [GR] | area over the GR curve [13] [GR] |
| --- | --- | --- | --- | --- | --- | --- | --- | --- | --- | --- | --- | --- | --- |
| CCN1CCN(Cc2ccc(Nc3ncc(F)c(-c4cc(F)c5nc(C)n(C(C)C)c5c4)n3)nc2)CC1 (max 10 µM) | -0.268 | -0.0085 | 0.0999 | -0.464 | 0.228 | -0.0787 | -0.461 | 0.301 | -0.444 | 0.33 | 0.254 | 0.458 | 0.634 |
| CNc1nc(-c2ccc3c(N)n[nH]c3c2)cc(N2C[C@@H](C(=O)NC3CCCCC3)CC[C@H]2C)n1 (max 10 µM) | 0.295 | 0.0477 | 0.504 | 0.794 | 0.442 | 0.742 | -0.599 | 0.151 | 0.869 | -0.283 | 0.224 | 0.0806 | 0.157 |
| CO[C@@H](C)Cn1c(=O)n(C)c2cnc3ccc(-c4cncc(C(C)(C)O)c4)cc3c21 (max 10 µM) | -0.248 | -0.473 | -0.718 | -0.159 | -0.769 | -0.203 | -0.795 | -0.844 | -0.0061 | 0.303 | 0.679 | 0.822 | 0.688 |
| Cc1nn(C)c(COc2ccc(N3CCN(S(=O)(=O)N(C)C)CC3)cc2)c1-c1cccc2c(CCCOc3cccc4ccccc34)c(C(=O)O)n(CCN3CCOCC3)c12 (max 10 µM) | 0.877 | 0.881 | 0.863 | 0.992 | 0.708 | 0.672 | 0.775 | 0.69 | 0.905 | -0.0287 | 0.117 | -0.0351 | -0.0079 |
| CN(C)CC[C@H](CSc1ccccc1)Nc1ccc(S(=O)(=O)NC(=O)c2ccc(N3CCN(Cc4ccccc4-c4ccc(Cl)cc4)CC3)cc2)cc1[N+](=O)[O-] [ABT-737] (max 10 µM) | 0.727 | 0.352 | 0.492 | 0.876 | 0.471 | 0.376 | 0.0409 | 0.181 | 0.729 | 0.526 | 0.319 | 0.027 | 0.026 |
| C=CCn1c(=O)c2cnc(Nc3ccc(N4CCN(C)CC4)cc3)nc2n1-c1cccc(C(C)(C)O)n1 [AZD1775] (max 10 µM) | -0.0913 | -0.186 | -0.729 | -0.188 | -0.0276 | -0.458 | -0.873 | -0.398 | -0.55 | 0.822 | 0.212 | 0.295 | 0.759 |
| CNC(=O)c1cccc(-c2ccc3c(N4CCOC[C@@H]4C)nc(N4CCOC[C@@H]4C)nc3n2)c1 [AZD2014] (max 10 µM) | -0.0281 | -0.138 | 0.227 | 0.201 | -0.12 | 0.182 | -0.693 | -0.421 | 0.409 | 0.296 | 0.606 | 0.568 | 0.504 |
| NC1(C(=O)N[C@@H](CCO)c2ccc(Cl)cc2)CCN(c2nc[nH]c3nccc2-3)CC1 [AZD5363] (max 10 µM) | 0.476 | -0.529 | 0.426 | 0.565 | 0.536 | 0.769 | -0.905 | 0.0474 | 0.789 | -0.203 | 0.267 | 0.23 | 0.248 |

— the supplement of paper PMC9663587
